From ChEMBL document CHEMBL1122021, “Angiotensin-converting enzyme inhibitors: importance of the amide carbonyl of mercaptoacyl amino acids for hydrogen bonding to the enzyme” (J Med Chem, 1982)
pIC50: −log10 of the molar value.

Molecular target: T1, Angiotensin-converting enzyme (Oryctolagus cuniculus, UniProt P12822)
T1 sequence (P12822 whole entry): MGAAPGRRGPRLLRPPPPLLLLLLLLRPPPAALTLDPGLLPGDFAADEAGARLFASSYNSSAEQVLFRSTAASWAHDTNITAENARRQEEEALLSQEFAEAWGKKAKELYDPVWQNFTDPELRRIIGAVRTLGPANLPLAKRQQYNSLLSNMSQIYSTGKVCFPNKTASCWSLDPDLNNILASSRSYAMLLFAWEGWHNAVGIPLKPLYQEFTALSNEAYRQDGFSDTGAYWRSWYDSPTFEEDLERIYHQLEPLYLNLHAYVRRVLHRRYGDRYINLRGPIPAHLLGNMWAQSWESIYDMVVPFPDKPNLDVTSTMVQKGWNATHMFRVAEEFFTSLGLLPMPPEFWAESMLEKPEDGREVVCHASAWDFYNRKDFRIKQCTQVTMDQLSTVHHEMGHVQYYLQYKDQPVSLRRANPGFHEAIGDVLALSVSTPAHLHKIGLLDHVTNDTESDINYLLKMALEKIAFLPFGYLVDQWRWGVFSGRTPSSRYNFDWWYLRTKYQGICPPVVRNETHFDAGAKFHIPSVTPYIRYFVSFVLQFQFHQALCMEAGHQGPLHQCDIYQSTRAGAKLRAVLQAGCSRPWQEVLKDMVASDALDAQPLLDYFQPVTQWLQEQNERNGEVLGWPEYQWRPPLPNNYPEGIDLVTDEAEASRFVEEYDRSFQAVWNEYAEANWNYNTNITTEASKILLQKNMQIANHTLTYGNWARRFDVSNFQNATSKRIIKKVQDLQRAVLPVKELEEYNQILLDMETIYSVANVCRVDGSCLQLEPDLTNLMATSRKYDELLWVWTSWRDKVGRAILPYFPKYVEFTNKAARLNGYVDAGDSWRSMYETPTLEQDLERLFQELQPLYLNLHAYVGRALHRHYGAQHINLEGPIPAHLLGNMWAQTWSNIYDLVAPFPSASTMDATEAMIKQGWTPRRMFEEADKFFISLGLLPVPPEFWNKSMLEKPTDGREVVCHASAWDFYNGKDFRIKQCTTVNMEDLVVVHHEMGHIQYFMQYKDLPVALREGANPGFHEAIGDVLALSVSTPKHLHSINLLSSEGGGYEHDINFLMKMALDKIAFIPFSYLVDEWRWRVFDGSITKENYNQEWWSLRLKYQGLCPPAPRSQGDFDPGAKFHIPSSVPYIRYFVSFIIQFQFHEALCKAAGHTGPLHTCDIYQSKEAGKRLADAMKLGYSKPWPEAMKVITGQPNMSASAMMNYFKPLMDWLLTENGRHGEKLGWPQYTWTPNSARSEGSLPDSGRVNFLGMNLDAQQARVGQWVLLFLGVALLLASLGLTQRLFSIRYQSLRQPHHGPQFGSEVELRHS
Assay: In vitro inhibitory activity against Angiotensin I converting enzyme in rabbit lung, using hippuryl-histidyl-leucine as substrate

Structure (SMILES) | pIC50 (read-out: I50) | pIC50
C[C@H](CS)C(=O)N1C(=O)CC[C@H]1C(=O)O |  | 8.05
O=C(CCS)[C@H]1CC[C@H]1C(=O)O | 4.47 | 
O=C(O)[C@@H]1CCC(=O)N1CCCS | 3.19 | 
O=C(O)CCC(O)CCS (stereo unspecified) | 2.92 | 
O=C(O)[C@@H]1CCCN1CCCS | 3.62 | 
O=C(O)CCCCCS | 2.96 | 
O=C(O)C/C=C/CCS | 3.14 | 
O=C(O)[C@@H]1CCCN1S(=O)(=O)CCS | 4.96 | 
O=C(O)CC(=O)NCCS | 3.24 | 
CN(C(=O)CCS)[C@@H](Cc1ccccc1)C(=O)O |  | 4.51
O=C(O)CCC(=O)CCS | 4.96 | 
O=C(O)[C@@H]1CC[C@H]1C(=O)CCS | 4.43 | 

The remaining lines, values ahead:

pIC50 (read-out: I50) | pIC50 | Structure (SMILES)
5.52 |  | CN(CC(=O)O)C(=O)CCS
5.77 |  | O=C(O)[C@@H]1CCCC[C@H]1C(=O)CCS
5.00 |  | O=C(O)CN1CCCC(CS)C1=O (stereo unspecified)
5.85 |  | O=C(CCS)[C@H]1CCCC[C@H]1C(=O)O
6.15 |  | O=C(CCS)O[C@@H](Cc1ccccc1)C(=O)O
6.60 |  | O=C(O)[C@@H]1CCCN1C(=O)CCS
5.62 |  | O=C(O)[C@@H]1CCC[C@H]1C(=O)CCS
5.77 |  | O=C(O)[C@@H]1CCN1C(=O)CCS
5.55 |  | O=C(O)CNC(=O)CCS
6.34 |  | O=C(O)[C@@H]1CCCCN1C(=O)CCS
6.13 |  | C[C@H](CS)C(=O)[C@@H]1CCCC[C@H]1C(=O)O
6.07 |  | O=C(CCS)N[C@@H](Cc1ccccc1)C(=O)O
6.89 |  | C[C@H](CS)C(=O)N1CCCC[C@H]1C(=O)O
5.43 |  | C[C@@H](CS)C(=O)[C@@H]1CCCC[C@H]1C(=O)O
